In one assay the target is human AT2R fused to Cb23 (Homo sapiens, UniProt P50052). As to the kind of experiment: Radioligand binding assay, displacement of 125I-[Sar1, Ile8]-Angiotensin II, hAT2R Cb23. The conditions noted are these: displacement of 125I-[Sar1, Ile8]-Angiotensin II, human AT2R fused to Cb23, HEK-293 cell membrane preparations; read-out: Binding affinity on hAT2R_Cb23 IC50. The procedure:
(§1) All synthesized ligands were evaluated in a radioligand assay by displacing ^125I-[Sar1, Ile8]-Angiotensin II (Perkin Elmer, NEX248050UC) from human AT2R fused to Cb23 or human/rodent/cynomolgus/minipig/dog WT AT2R in HEK-293 cells membrane preparations, using C21 (Vicore Pharma) and Angiotensin II (endogenous ligand) as reference. The affinity was determined using an eight-point dose-response curve, each point performed in duplicates. The compounds were also evaluated in a counterscreen binding assay for displacement of ^125I-[Sar1, Ile8]-Angiotensin II binding to human AT1R in HEK-293 cell membranes. For AT1R, the percent displacement was determined at 1 μM and […] (in duplicates) or using an eight-point dose-response curve, each point performed in duplicates with Candesartan and Losartan used as reference.
(§2) For the AT2R/AT1R binding assays, cell membranes, expressing AT2R_Cb23, AT2R or AT1R, were incubated with 0.05 nM ^125I-[Sarl, Ile8]-Ang II. The ligand competition assay was performed in a total volume of 100 μL assay buffer (50 mM Tris, 5 mM MgCl2, 1 mM EDTA, 0.1% BSA, pH 7.4), at concentrations ranging from […] to 10 μM. For each experiment, each ligand concentration was tested in duplicate. Non-specific binding (NSB) was determined by the inclusion of 10 μM unlabeled [Sarl]-Ang II (Sigma Aldrich). The reaction was initiated by the addition of radioligand, after which the plates were incubated at 25° C. for one hour. The reaction was terminated by rapid filtration using a vacuum harvester, applying six washes with 100 μL of ice-cold wash buffer (50 mM Tris.HCl, pH 7.4). The filter plates GF/C (Perkin Elmer) were pre-soaked in 0.5% PEI. The residual amount of radioactivity was determined via liquid scintillation counting. IC50 values, representing the concentration at which each ligand displaced 50% of ^125I-[Sarl, Ile8]-Ang II, were calculated using GraphPad Prism 7.02 by applying a Non-linear regression equation (variable slope, four parameters) on the data. The obtained values serve as affinity estimates for each ligand and their ability to compete against the radioligand for binding with AT2R or AT1R, respectively.

In a further assay the target is human AT1R (Homo sapiens (Human), UniProt P30556). As to the kind of experiment: Counterscreen radioligand binding assay, displacement of 125I-[Sar1, Ile8]-Angiotensin II, hAT1R WT. The conditions noted are these: for inhibition at 1 µM / inhibition at 10 µM: 125I-[Sar1, Ile8]-Ang II, semi-quantitative score; for inhibition at 1 µM: compound at 1 μM, read-out: % Displaced radioligand at 1 μM; for inhibition at 10 µM: compound at 10 μM, read-out: % Displaced radioligand at 10 μM; for IC50: HEK-293 cell membranes, read-out: Binding affinity On hAT1R IC50. The procedure:
as §1, §2

Chain of human AT2R fused to Cb23 (P50052 whole entry, looked up, the tested form may be a part): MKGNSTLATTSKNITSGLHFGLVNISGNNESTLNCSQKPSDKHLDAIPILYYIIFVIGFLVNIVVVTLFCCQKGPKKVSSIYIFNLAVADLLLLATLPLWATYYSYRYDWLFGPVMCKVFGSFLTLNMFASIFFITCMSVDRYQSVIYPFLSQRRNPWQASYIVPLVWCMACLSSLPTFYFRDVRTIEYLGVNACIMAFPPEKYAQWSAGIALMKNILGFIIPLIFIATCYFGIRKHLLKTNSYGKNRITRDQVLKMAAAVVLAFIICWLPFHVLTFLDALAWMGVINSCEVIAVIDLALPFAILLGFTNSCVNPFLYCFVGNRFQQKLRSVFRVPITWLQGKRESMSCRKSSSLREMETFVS
Chain of human AT1R (P30556 whole entry): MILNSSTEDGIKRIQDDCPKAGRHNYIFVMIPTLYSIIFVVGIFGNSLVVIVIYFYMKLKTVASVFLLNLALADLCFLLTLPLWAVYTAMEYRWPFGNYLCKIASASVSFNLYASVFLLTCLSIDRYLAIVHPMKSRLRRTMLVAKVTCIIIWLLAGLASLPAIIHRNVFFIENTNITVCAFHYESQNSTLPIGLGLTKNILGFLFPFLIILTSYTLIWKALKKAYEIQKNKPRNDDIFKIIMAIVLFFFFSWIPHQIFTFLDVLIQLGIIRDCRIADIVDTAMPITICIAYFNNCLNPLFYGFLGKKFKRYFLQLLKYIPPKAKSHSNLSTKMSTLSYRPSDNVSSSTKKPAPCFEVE

`CCS(=O)(=O)NC(=O)c1ccccc1CN1CCN(c2nc3ccccc3s2)CC1` [Compound A-02, 2-[[4-(1,3-benzo-thiazol-2-yl)piper-azin-1-yl]methyl]-N-ethylsulfonyl-benzamide]: the IC50 on human AT2R fused to Cb23 was 6.21 µM. Also, on human AT1R, the inhibition at 1 µM is less than 30% and the inhibition at 10 µM is less than 30%. As for `c1ccc(-c2nn[nH]n2)c(CN2CCN(c3nc4ccccc4s3)CC2)c1` [Compound A-03, 2-[4-[[2-(2H-tetrazol-5-yl)phen-yl]-methyl]piper-azin-1-yl]-1,3-benzothiazole], on human AT2R fused to Cb23, the IC50 amounted to 15.9 µM. On human AT1R, the inhibition at 1 µM was less than 30% and the inhibition at 10 µM was less than 30%. On to `c1ccc(N2CCN(Cc3nc4ccccc4s3)CC2)c(-c2nn[nH]n2)c1` [Compound A-05, 2-[[4-[2-(2H-tetrazol-5-yl)phen-yl]piperazin-1-yl]-methyl]-1,3-benzo-thiazole], for which the IC50 at human AT2R fused to Cb23 came out at 34.1 µM. In addition, at human AT1R, the inhibition at 1 µM is less than 30%, the inhibition at 10 µM is less than 30% and the concentration for half-maximal inhibition (IC50) is 49.9 µM.

Regarding `c1ccc(N2CCC(Cc3nc4ccccc4s3)CC2)c(-c2nn[nH]n2)c1` [Compound A-06, 2-[[1-[2-(2H-tetrazol-5-yl)phen-yl]-4-piperidyl]-methyl]-1,3-benzo-thiazole], the concentration for half-maximal inhibition (IC50) on human AT2R fused to Cb23 came to 16.5 µM. At human AT1R, the inhibition at 1 µM is less than 30%, the inhibition at 10 µM fell in the range of 30 to 50% and the IC50 amounted to 25.4 µM. The like results for `CCOC(=O)NS(=O)(=O)c1ccc(C(F)(F)F)cc1N1CCN(Cc2nc3ccccc3n2C)CC1` [Compound A-08, ethyl N-[2-[4-[(1-methylbenzimidazol-2-yl)methyl]piperazin-1-yl]-4-(trifluoromethyl)phenyl]sulfonylcarbamate] were, in that order, 6.82 µM, less than 30%, less than 30% and 92.1 µM. As for `Cc1ncc(CN2CCN(c3cc(CC(C)C)ccc3-c3nn[nH]n3)CC2)n1C` [Compound A-114, 1-[(2,3-dimethyl-imidazol-4-yl)meth-yl]-4-[5-isobutyl-2-(2H-tetrazol-5-yl)-phenyl]piperazine], at human AT2R fused to Cb23, the IC50 was found to be 18.7 µM. Regarding `COc1cc(N2CCN(Cc3nc4ccccc4s3)CC2)c(-c2nn[nH]n2)cc1F` [Compound A-117, 2-[[4-[4-fluoro-5-methoxy-2-(2H-tetrazol-5-yl)phen-yl]piperazin-1-yl]-methyl]-1,3-benzo-thiazole], the IC50 at human AT2R fused to Cb23 turned out to be 52.6 µM. Still for that read-out and setting: to `Fc1cc(-c2nn[nH]n2)c(N2CCN(Cc3nc4ccccc4s3)CC2)cc1C1CC1` [Compound A-124, 2-[[4-[5-cycloprop-yl-4-fluoro-2-(2H-tetrazol-5-yl)phen-yl]piperazin-1-yl]-methyl]-1,3-benzo-thiazole] belongs 18.1 µM; to `Cc1cc(-c2nn[nH]n2)c(N2CCN(Cc3nc4ccccc4s3)CC2)cc1C1CC1` [Compound A-126, 2-[[4-[5-cycloprop-yl-4-methyl-2-(2H-tetrazol-5-yl)phen-yl]piperazin-1-yl]-methyl]-1,3-benzo-thiazole], 22.6 µM; to `CCNc1cc(-c2nn[nH]n2)c(N2CCN(Cc3nc4ccccc4s3)CC2)cc1C1CC1` [Compound A-130, 4-[4-(1,3-benzothi-azol-2-ylmethyl)-piperazin-1-yl]-2-cyclopropyl-N-eth-yl-5-(2H-tetrazol-5-yl)aniline], 28.8 µM.

In the case of `CC(=O)Nc1cc(-c2nn[nH]n2)c(N2CCN(Cc3nc4ccccc4s3)CC2)cc1C1CC1` [Compound A-131, N-[4-[4-(1,3-benzo-thiazol-2-ylmethyl)-piperazin-1-yl]-2-cyclopropyl-5-(2H-tetrazol-5-yl)phen-yl]acetamide], at human AT2R fused to Cb23, the IC50 turned out to be 13.3 µM. Regarding `CCc1cnc(-c2nn[nH]n2)c(N2CCN(Cc3nc4ccccc4s3)CC2)c1` [Compound A-141], the IC50 on human AT2R fused to Cb23 turned out to be 22.7 µM. Same read-out and setting: to `c1ccc2sc(CN3CCN(c4cc(C5CC5)ncc4-c4nn[nH]n4)CC3)nc2c1` [Compound A-144, 2-[[4-[2-cycloprop-yl-5-(2H-tetrazol-5-yl)-4-pyridyl]piper-azin-1-yl]methyl]-1,3-benzothiazole] belongs 14.8 µM; to `COc1cc(F)c(-c2nn[nH]n2)c(N2CCN(Cc3nc4ccccc4c(=O)[nH]3)CC2)c1` [Compound A-150, 2-[[4-[3-fluoro-5-methoxy-2-(2H-tetrazol-5-yl)phen-yl]piperazin-1-yl]-methyl]-3H-quin-azolin-4-one], 33.8 µM. On the same count and under the same terms, to `COc1cc(F)c(-c2nn[nH]n2)c(N2CCN(Cc3cccnn3)CC2)c1` [Compound A-155, 3-[[4-[3-fluoro-5-methoxy-2-(2H-tetrazol-5-yl)phen-yl]piperazin-1-yl]-methyl]pyridazine] belongs 72.8 µM; to `CC(C)Oc1cc(F)c(-c2nn[nH]n2)c(N2CCN(Cc3cccnn3)CC2)c1` [Compound A-156, 3-[[4-[3-fluoro-5-isopropoxy-2-(2H-tetrazol-5-yl)phen-yl]piperazin-1-yl]-methyl]pyridazine], 11.6 µM; to `CC(C)Oc1ccc(-c2nn[nH]n2)c(N2CCN(Cc3cccnn3)CC2)c1F` [Compound A-157, 3-[[4-[2-fluoro-3-isopropoxy-6-(2H-tetrazol-5-yl)phen-yl]piperazin-1-yl]-methyl]pyridazine], 34.4 µM. Same read-out and setting: to `CCc1cc(-c2nn[nH]n2)c(N2CCN(Cc3cccnn3)CC2)cc1OC(C)C` [Compound A-158, 3-[[4-[4-ethyl-5-isopropoxy-2-(2H-tetrazol-5-yl)phen-yl]piperazin-1-yl]-methyl]pyridazine] belongs 44 µM; to `CCOc1cc(-c2nn[nH]n2)c(N2CCN(Cc3cccnn3)CC2)cc1OC(C)C` [Compound A-162, 3-[[4-[4-ethoxy-5-isopropoxy-2-(2H-tetrazol-5-yl)phen-yl]piperazin-1-yl]-methyl]pyridazine], 20.7 µM. As for `Cc1cc(-c2nn[nH]n2)c(N2CCN(Cc3cccnn3)CC2)cc1CC(C)C` [Compound A-166, 3-[[4-[5-isobutyl-4-methyl-2-(2H-tetrazol-5-yl)phen-yl]piperazin-1-yl]-methyl]pyridazine], the concentration for half-maximal inhibition (IC50) on human AT2R fused to Cb23 was found to be 22.1 µM.

`CC(C)Cc1cc(F)c(-c2nn[nH]n2)c(N2CCC(Cc3ccccn3)CC2)c1` [Compound A-237, 2-[[1-[3-fluoro-5-isobutyl-2-(2H-tetrazol-5-yl)phenyl]-4-piperidyl]methyl]pyridine]: on human AT2R fused to Cb23, the IC50 is 0.442 µM. Still for that read-out and setting: to `CC(C)Cc1ccc(-c2nn[nH]n2)c(CN2CCN(Cc3cccnn3)CC2)c1` [Compound A-238, 3-[[4-[[5-isobutyl-2-(2H-tetrazol-5-yl)phenyl]methyl]-piperazin-1-yl]-methyl]pyridazine] belongs 18.8 µM; to `CCc1nc2ccccc2c(=O)n1CC1CCN(c2ccccc2-c2nn[nH]n2)CC1` [Compound A-240, 2-ethyl-3-[[1-[2-(2H-tetrazol-5-yl)-phenyl]-4-piperid-yl]methyl]quin-azolin-4-one], 36.2 µM; to `CCc1nc2ccccc2c(=O)n1CC1CCN(c2ccccc2C(=O)NS(=O)(=O)CC)CC1` [Compound A-241, 2-[4-[(2-ethyl-4-oxo-quinazolin-3-yl)methyl]-1-piperidyl]-N-ethyl-sulfonyl-benzamide], 42.5 µM.

`CCc1nc2ccc([N+](=O)[O-])cc2c(=O)n1CC1CCN(c2ccccc2-c2nn[nH]n2)CC1` [Compound A-242, 2-ethyl-6-nitro-3-[[1-[2-(2H-tetrazol-5-yl)phenyl]-4-piperidyl]methyl]quinazolin-4-one]: the IC50 at human AT2R fused to Cb23 was 27.7 µM. As for `CCc1nc2ccc(NC(=O)C3CC3)cc2c(=O)n1CC1CCN(c2ccccc2-c2nn[nH]n2)CC1` [Compound A-247, N-[2-ethyl-4-oxo-3-[[1-[2-(2H-tetrazol-5-yl)phenyl]-4-piperidyl]methyl]-quinazolin-6-yl]-cyclopropane-carboxamide], on human AT2R fused to Cb23, the IC50 was determined as 35.3 µM.

Consider `O=c1c2ccccc2nc(-c2ccccc2)n1CC1CCN(c2ccccc2-c2nnn[nH]2)CC1` [Compound A-249, 2-phenyl-3-[[1-[2-(2H-tetrazol-5-yl)phenyl]-4-piperidyl]methyl]quinazolin-4-one], for which the IC50 on human AT2R fused to Cb23 is 79 µM.

(Values after patent publication US20240368133A1, “Compounds for the Treatment of Pain, in Particular, Neuropathic Pain, and/or Other Diseases or Disorders that are Associated with AT2R and/or AT2R Mediated Signaling” (Confo Therapeutics N.V., priority 2021, published 2024).)
